We go through 37 molecules from patent publication US11542233B2, “Compounds, compositions and methods of use” (Aquinnah Pharmaceuticals, Inc., priority 2016, dated 2023).

In the assay the test system is TDP-43 aggregation in PC12 cells stably expressing GFP-tagged mutant TDP-43 (TDP-43^Q33IK::eGFP). Kind of assay: In vitro efficacy assay: inhibition of TDP-43 inclusions, concentration-response, fluorescence microscopy. In kind it is cell-based. To be noted: Rattus norvegicus, PC-12, PC12 cells, 1 hour pre-treatment, 15 μM sodium arsenite for 23 hours, 10-point dose response curve. The essentials:
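PC12 cells stably expressing TDP-43^Q33IK::eGFP pre-treated 1 h with compound, then stressed with 15 μM sodium arsenite for 23 h. Fluorescence microscopy gave the fraction of GFP-positive cells bearing aggregates; IC50 from concentration-response, reported in bins: A <100 nM, B 100–500 nM, C 500 nM–2 μM, D >2 μM.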
Regarding `CCN(C(=O)c1nc2ccccc2[nH]1)[C@H]1CCC[C@@H](NCc2ccc3oc(C)nc3c2)C1` [Compound 531], the IC50 (usually the concentration that gives 50% inhibition) was 0.1 to 0.5 µM.

On to `CCN(C(=O)c1cc2cc(C#N)ccc2[nH]1)[C@H]1CCC[C@@H](NCc2ccc(F)cc2)C1` [Compound 532, 5-cyano-N-ethyl-N-((1S,3R)-3-((4-fluorobenzyl)amino)cyclohexyl)-1H-indole-2-carboxamide], for which the IC50 is less than 0.1 µM.

Take `CCN(C(=O)c1cc2cc(C#N)ccc2[nH]1)[C@H]1CCC[C@@H](NCc2cc3ccccc3o2)C1` [Compound 533]: the IC50 is less than 0.1 µM.

As to `CCN(C(=O)c1cc2cc(C#N)ccc2[nH]1)[C@H]1CCC[C@@H](NCc2cccc(F)c2)C1` [Compound 534], the IC50 was less than 0.1 µM.

With `CCN(C(=O)c1cc2cc(C#N)ccc2[nH]1)[C@H]1CCC[C@@H](NCc2oc3ccccc3c2C)C1` [Compound 535], the IC50 was less than 0.1 µM.

For `CCN(C(=O)c1cc2cc(C#N)ccc2[nH]1)[C@H]1CCC[C@@H](NCc2oc3ccccc3c2C#N)C1` [Compound 536, 5-cyano-N-((1S,3R)-3-(((3-cyanobenzofuran-2-yl)methyl)amino)cyclohexyl)-N-ethyl-1H-indole-2-carboxamide], the IC50 was less than 0.1 µM.

In the case of `CCN(C(=O)c1nc2cc(C#N)ccc2[nH]1)[C@H]1CCC[C@@H](NCc2cc(C3CC3)on2)C1` [Compound 537], the IC50 was less than 0.1 µM.

With `CCN(C(=O)c1cc2cc(C#N)ccc2[nH]1)[C@H]1CCC[C@@H](NCc2ccccc2)C1` [Compound 538, N-((1S,3R)-3-(benzylamino)cyclohexyl)-5-cyano-N-ethyl-1H-indole-2-carboxamide], the IC50 was less than 0.1 µM.

For `CCN(C(=O)c1nc2cc(OC(F)(F)F)ccc2[nH]1)[C@H]1CCC[C@@H](NCc2ccccc2)C1` [Compound 539, N-((1S,3R)-3-(benzylamino)cyclohexyl)-N-ethyl-5-(trifluoromethoxy)-1H-benzo[d]imidazole-2-carboxamide], the IC50 was less than 0.1 µM.

Consider `CCN(C(=O)c1nc2cc(S(C)(=O)=O)ccc2[nH]1)[C@H]1CCC[C@@H](NCc2ccccc2)C1` [Compound 540], for which the IC50 was less than 0.1 µM.

Regarding `CCN(C(=O)c1nc2cc(C3CC3)ccc2[nH]1)[C@H]1CCC[C@@H](NCc2ccccc2)C1` [Compound 541], the IC50 was less than 0.1 µM.

`CCN(C(=O)c1cc2cc(OC(F)(F)F)ccc2[nH]1)[C@H]1CCC[C@@H](NCc2ccccc2)C1` [Compound 542, N-((1S,3R)-3-(benzylamino)cyclohexyl)-N-ethyl-5-(trifluoromethoxy)-1H-indole-2-carboxamide]: the IC50 was less than 0.1 µM.

On to `CCN(C(=O)c1cc2cc(C3CC3)ccc2[nH]1)[C@H]1CCC[C@@H](NCc2ccccc2)C1` [Compound 543], for which the IC50 is less than 0.1 µM.

For `CCN(C(=O)c1cc2cc(C(F)(F)F)ccc2[nH]1)[C@H]1CCC[C@@H](NCc2ccccc2)C1` [Compound 544], the IC50 was less than 0.1 µM.

For the molecule `CCN(C(=O)c1nc2cc(C(F)(F)F)ccc2[nH]1)[C@H]1CCC[C@@H](NCc2ccccc2)C1` [Compound 545], the IC50 was less than 0.1 µM.

`CCN(C(=O)c1cc2cc(S(C)(=O)=O)ccc2[nH]1)[C@H]1CCC[C@@H](NCc2ccccc2)C1` [Compound 546]: the IC50 lay in the range of 0.1 to 0.5 µM.

For `CCN(C(=O)c1cc2cc(F)ccc2[nH]1)[C@H]1CCC[C@@H](NCc2ccccc2)C1` [Compound 547, N-((1S,3R)-3-(benzylamino)cyclohexyl)-N-ethyl-5-fluoro-1H-indole-2-carboxamide], the IC50 was less than 0.1 µM.

With `CCN(C(=O)c1cc2cc(F)ccc2[nH]1)[C@H]1CCC[C@@H](NCc2oc3ccccc3c2C)C1` [Compound 548], the IC50 is less than 0.1 µM.

With `CCN(C(=O)c1cc2cc(F)ccc2[nH]1)[C@H]1CCC[C@@H](NCc2cccc(F)c2)C1` [Compound 549], the IC50 is less than 0.1 µM.

Take `CCN(C(=O)c1cc2cc(F)ccc2[nH]1)[C@H]1CCC[C@@H](NCc2cc3ccccc3o2)C1` [Compound 550]: the IC50 was less than 0.1 µM.

Regarding `CCN(C(=O)c1cc2cc(F)ccc2[nH]1)[C@H]1CCC[C@@H](NCc2ccc(F)cc2)C1` [Compound 551], the IC50 is less than 0.1 µM.

As for `CCN(C(=O)c1nc2cc(F)ccc2[nH]1)[C@H]1CCC[C@@H](NCc2cc(C3CC3)on2)C1` [Compound 552, N-((1S,3R)-3-(((5-cyclopropylisoxazol-3-yl)methyl)amino)cyclohexyl)-N-ethyl-5-fluoro-1H-benzo[d]imidazole-2-carboxamide], the IC50 is less than 0.1 µM.

As for `CCN(C(=O)c1cc2cc(F)ccc2[nH]1)[C@H]1CCC[C@@H](NCc2oc3ccccc3c2C#N)C1` [Compound 553], the IC50 is less than 0.1 µM.

As for `CCN(C(=O)c1nc2ccccc2[nH]1)[C@H]1CCC[C@@H](NCc2cc(C(F)(F)F)on2)C1` [Compound 554, N-ethyl-N-((1S,3R)-3-(((5-(trifluoromethyl)isoxazol-3-yl)methyl)amino)cyclohexyl)-1H-benzo[d]imidazole-2-carboxamide], the IC50 was less than 0.1 µM.

Regarding `CCN(C(=O)c1nc2ccccc2[nH]1)[C@@]1(C)CCC[C@@H](NCc2ccccc2)C1` [Compound 555, N-((1S,3R)-3-(benzylamino)-1-methylcyclohexyl)-N-ethyl-1H-benzo[d]imidazole-2-carboxamide], the IC50 was more than 2 µM.

For `CCN(C(=O)c1nc2cc(F)ccc2[nH]1)[C@@]1(C)CCC[C@@H](NCc2ccccc2)C1` [Compound 556, N-((1S,3R)-3-(benzylamino)-1-methylcyclohexyl)-N-ethyl-5-fluoro-1H-benzo[d]imidazole-2-carboxamide], the IC50 is more than 2 µM.

As to `C#CCOc1ccc(CN[C@@H]2CCC[C@H](N(CC)C(=O)c3nc4cc(N=[N+]=[N-])ccc4[nH]3)C2)cc1` [Compound 557, 5-azido-N-ethyl-N-((1S,3R)-3-((4-(prop-2-yn-1-yloxy)benzyl)amino)cyclohexyl)-1H-benzo[d]imidazole-2-carboxamide], the IC50 is less than 0.1 µM.

For the molecule `C#CCOc1cccc(CN[C@@H]2CCC[C@H](N(CC)C(=O)c3nc4c(N=[N+]=[N-])cccc4[nH]3)C2)c1` [Compound 560], the IC50 was less than 0.1 µM.

For the molecule `C#CCOc1ccc(CN[C@@H]2CCC[C@H](N(CC)C(=O)c3nc4cc([N+](=O)[O-])ccc4[nH]3)C2)cc1` [Compound 561, N-ethyl-5-nitro-N-((1S,3R)-3-((4-(prop-2-yn-1-yloxy)benzyl)amino)cyclohexyl)-1H-benzo[d]imidazole-2-carboxamide], the IC50 was less than 0.1 µM.

On to `C#CCOc1ccc(CN[C@@H]2CCC[C@H](N(CC)C(=O)c3nc4cc(N)ccc4[nH]3)C2)cc1` [Compound 562, 5-amino-N-ethyl-N-((1S,3R)-3-((4-(prop-2-yn-1-yloxy)benzyl)amino)cyclohexyl)-1H-benzo[d]imidazole-2-carboxamide], for which the IC50 was in the range of 0.5 to 2 µM.

Take `C#CCOc1cccc(CN[C@@H]2CCC[C@H](N(CC)C(=O)c3nc4cc([N+](=O)[O-])ccc4[nH]3)C2)c1` [Compound 563]: the IC50 was less than 0.1 µM.

Consider `C#CCOc1cccc(CN[C@@H]2CCC[C@H](N(CC)C(=O)c3nc4cc(N)ccc4[nH]3)C2)c1` [Compound 564], for which the IC50 was 0.1 to 0.5 µM.

Regarding `C#CCOc1ccc(CN[C@@H]2CCC[C@H](N(CC)C(=O)c3nc4c([N+](=O)[O-])cccc4[nH]3)C2)cc1` [Compound 565], the IC50 is less than 0.1 µM.

With `C#CCOc1cccc(CN[C@@H]2CCC[C@H](N(CC)C(=O)c3nc4c([N+](=O)[O-])cccc4[nH]3)C2)c1` [Compound 566], the IC50 is less than 0.1 µM.

For the molecule `C#CCOc1ccc(CN[C@@H]2CCC[C@H](N(CC)C(=O)c3nc4c(N)cccc4[nH]3)C2)cc1` [Compound 567], the concentration for half-maximal inhibition (IC50) was less than 0.1 µM.

On to `C#CCOc1cccc(CN[C@@H]2CCC[C@H](N(CC)C(=O)c3nc4c(N)cccc4[nH]3)C2)c1` [Compound 568], for which the IC50 was less than 0.1 µM.

In the case of `CCN(C(=O)c1nc2cc(F)ccc2[nH]1)[C@H]1CCC[C@@H](NCc2oc3ccccc3c2C#N)C1` [compound 510], the IC50 was less than 0.1 µM.
